# Data: US20190216767A1, “TOPICAL THERAPY FOR THE TREATMENT OF SKIN KERATOSES USING NANOPARTICLES OF TAXANES” (DFB SORIA, LLC, priority 2017, published 2019)
# Read-outs that look alike come from different tables or passages of the source.
# Columns and labels:
# [1] = methanol/water 15/85 (v/v), 37° C., pH 7, 75 rpm, cited from earlier work
# [2] = Bulk density (not tapped); format: physicochemical; conditions: nanoparticle API lot
# Source text: (§1) Taxane nanoparticles produced by various supercritical carbon dioxide particle size reduction methods can have unique physical characteristics as compared to taxane nanoparticles produced by conventional particle size reduction methods using physical impacting or grinding, e.g., wet or dry milling, micronizing, disintegrating, comminuting, microfluidizing, or pulverizing. […] This bulk density range is generally lower than the bulk density of taxane particles produced by conventional means, and the SSA is generally higher than the SSA of taxane particles produced by conventional means. […] As used herein, the “specific surface area (SSA)” is the total surface area of the taxane nanoparticle per unit of taxane mass as measured by the Brunauer-Emmett-Teller (“BET”) isotherm by the following method: a known mass between 200 and 300 mg of the analyte is added to a 30 mL sample tube. […] The automated test is then carried out using the BETWIN® software package and the surface area of each sample is subsequently calculated. The bulk density measurement can be conducted by pouring the taxane nanoparticles into a graduated cylinder without tapping at room temperature, measuring the mass and volume, and calculating the bulk density.
# [3] = Particle size of paclitaxel nanoparticles lots (ACCUSIZER 780); format: physicochemical; conditions: nanoparticle API lot
# Experimental: Max. Concentration: 9000 particles/mL, No. containers: 1, Sensor Range: Summation, Lower Detection Limit: 0.5 μm, Flow Rate: 30 mL/min, No. Analysis pulls: 4, Time between pulls: 1 sec, Pull volume: 10 mL, Tare Volume: 1 mL, Prime volume: 1 mL, Include First Pull: Not Selected.
# Vortexed for 5-10 minutes and sonicated in a water batch for 1 minute.
# Filled a plastic bottle with filtered (0.22 μm) 0.1% w/w SDS solution and analyzed the Background.
# [4] = Specific surface area (SSA) by BET isotherm; format: physicochemical; conditions: BET isotherm method, nanoparticle API lot
# Source text: as §1
# [5] = Observation of paclitaxel nanoparticle crystal growth by light microscopy; format: physicochemical
# Göttingen minipigs = assay: Dermal toxicity study (GLP, topical daily for 28 days); format: in vivo; conditions: topical daily for 28 days, 0.3, 1.0 and 3%
# Experimental: The GLP-compliant study was conducted in Göttingen minipigs to characterize the toxicity of the formulations applied topically to 10% body surface area daily for 28 days. […] Reversibility of findings was also evaluated following a 2-week recovery period. Parameters evaluated included clinical observations, mortality and moribundity checks, dermal scoring, body weight, food consumption, eye examinations, test site photographs, electrocardiology, clinical pathology, bioanalysis and toxicokinetic evaluation, organ weights, macroscopic pathology and histopathology. There were no formulation-related effects on survival, clinical signs, dermal irritation, body weights, body weight gains, food consumption, ophthalmic findings, or cardiology parameters.
# [6] = Solubility of paclitaxel in various solvents (HPLC); format: physicochemical
# Experimental: Step “d” was continued for each vial for a total of 48 hours.
# [7] = listed as paclitaxel nanoparticles lot used in the formulas listed in Table 3
# [8] = listed as paclitaxel nanoparticles lot used in the formulas listed in Tables 16-19
# [9] = in Aluminum sulfate 0.1-0.2% in water, @ 7 days, RT
# [10] = in Ammonium lauryl sulfate 2% in water, @ 3 days, RT
# [11] = in Benzalkonium chloride (50%) 2% in water, @ 7 days & 21 days, RT
# [12] = in CARBOPOL ULTREZ 10 (with Ammonium hydroxide as neutralizer) 0.5% in water, @ 8 days & 21 days, RT
# [13] = in Castor Oil 100%, @ 24 hrs & 9 days, RT
# [14] = in Dimethicone, 1000 cSt 100%, @ 24 hrs & 6 days, RT
# [15] = in FOMBLIN HC04 100%, @ 4, 7 & 13 days, RT
# [16] = in Hydroxyethyl cellulose 1% in water, @ 7 days, RT
# [17] = in Hydroxypropyl methylcellulose 1% in water, @ 3 days, RT
# [18] = in Lecithin 1% in water, @ 24 hrs, RT
# [19] = in Light Mineral Oil NF 100%, @ 3 days, RT & 40 C.
# [20] = in Magnesium nitrate 5% in water, @ 3 days, RT
# [21] = in Mannitol 5% in water, @ 7 days, RT
# [22] = in Mineral Oil USP (heavy) 100%, @ 3 days, RT & 40 C.
# [23] = in PEG 400 10% in water, @ 22 days, RT & 60 C.
# [24] = in Poloxamer 188 2% in water, @ 7 days, RT
# [25] = in Poloxamer 407 2% in water, @ 5 & 7 days, RT
# [26] = in Polyoxyl 40 Hydrogenated Castor Oil (KOLLIPHOR RH40) 1% in water, @ 6 days, RT
# [27] = in Polysorbate 80 0.5% in Saline, @ 7 days, RT & 60 C.
# [28] = in Polysorbate 80 0.5% in water, @ 22 days, RT & 60 C.
# [29] = in Povidone 1% in water, @ 7 days & 21 days, RT
# [30] = in Proline 3% in water, @ 7 days, RT
# [31] = in Purified Water 100%, @ 5 days, RT & 60 C.
# [32] = in ST-Cyclomethicone 5 NF 100%, @ 24 hrs & 13 days, RT
# [33] = in Saline 0.9% NaCl in water, @ 7 days, RT & 60 C.
# [34] = in Sodium lauryl sulfate 2% in water, @ 7 days, RT
# [35] = in Sodium phosphate monobasic 0.75% in water, @ 7 days, RT
# [36] = in Sorbitol 5% in water, @ 7 days, RT
# [37] = in Vitamin E TPGS 0.5% in water, @ 6 days, RT
# [38] = in Zinc acetate […] in water, @ 7 days, RT
smiles,measurement,setting,value
"CC(=O)O[C@@]12CO[C@@H]1C[C@H](O)[C@@]1(C)C(=O)[C@H](O)C3=C(C)[C@@H](OC(=O)[C@H](O)[C@@H](NC(=O)OC(C)(C)C)c4ccccc4)C[C@@](O)([C@@H](OC(=O)c4ccccc4)[C@H]21)C3(C)C [Docetaxel nanoparticles, docetaxel]","dissolution rate, % dissolved in 30 minutes",[1]; nanoparticles made by milling,9%
same,"dissolution rate, % dissolved in 30 minutes",[1]; nanoparticles made by the supercritical carbon dioxide method,27%
CC(=O)O[C@H]1C(=O)[C@@]2(C)[C@H]([C@H](OC(=O)c3ccccc3)[C@]3(O)C[C@H](OC(=O)[C@H](O)[C@@H](NC(=O)c4ccccc4)c4ccccc4)C(C)=C1C3(C)C)[C@]1(OC(C)=O)CO[C@@H]1C[C@@H]2O [Paclitaxel nanoparticles lot used in formulas listed in Tabl] [listing 1 of 2 here],bulk density (not-tapped),[2]; [7],0.05 g/mL
same,Particle size (number-weighted differential distribution) Mean,[3],0.861 μm
same,Particle size (number-weighted differential distribution) Median,[3],0.710 μm
same,Particle size (number-weighted differential distribution) Mode,[3],0.572 μm
same,specific surface area (SSA),[4]; [7],41.24 m^2/g
CC(=O)O[C@H]1C(=O)[C@@]2(C)[C@H]([C@H](OC(=O)c3ccccc3)[C@]3(O)C[C@H](OC(=O)[C@H](O)[C@@H](NC(=O)c4ccccc4)c4ccccc4)C(C)=C1C3(C)C)[C@]1(OC(C)=O)CO[C@@H]1C[C@@H]2O [Paclitaxel nanoparticles lot used in formulas listed in Tabl] [listing 2 of 2 here],bulk density (not-tapped),[2]; [8],0.09 g/mL
same,Particle size (number-weighted differential distribution) Mean,[3],0.83 μm
same,specific surface area (SSA),[4]; [8],26.72 m^2/g
"CC(=O)O[C@H]1C(=O)[C@@]2(C)[C@H]([C@H](OC(=O)c3ccccc3)[C@]3(O)C[C@H](OC(=O)[C@H](O)[C@@H](NC(=O)c4ccccc4)c4ccccc4)C(C)=C1C3(C)C)[C@]1(OC(C)=O)CO[C@@H]1C[C@@H]2O [Paclitaxel nanoparticles, paclitaxel]",Crystal size (visual observation by light microscopy),[5]; [9],> 5 μm
same,Needle shaped crystals observed? (visual observation by light microscopy),[5]; [9],Yes
same,Crystal size (visual observation by light microscopy),[5]; [10],> 5 μm
same,Needle shaped crystals observed? (visual observation by light microscopy),[5]; [10],Yes
same,Crystal size (visual observation by light microscopy),[5]; [11],< 5 μm
same,Needle shaped crystals observed? (visual observation by light microscopy),[5]; [11],No
same,Crystal size (visual observation by light microscopy),[5]; [12],< 5 μm
same,Needle shaped crystals observed? (visual observation by light microscopy),[5]; [12],No
same,Crystal size (visual observation by light microscopy),[5]; [13],< 5 μm
same,Needle shaped crystals observed? (visual observation by light microscopy),[5]; [13],No
same,Crystal size (visual observation by light microscopy),[5]; [14],< 5 μm
same,Needle shaped crystals observed? (visual observation by light microscopy),[5]; [14],No
same,Crystal size (visual observation by light microscopy),[5]; [15],< 5 μm
same,Needle shaped crystals observed? (visual observation by light microscopy),[5]; [15],No
same,Crystal size (visual observation by light microscopy),[5]; [16],> 5 μm
same,Needle shaped crystals observed? (visual observation by light microscopy),[5]; [16],Yes
same,Crystal size (visual observation by light microscopy),[5]; [17],> 5 μm
same,Needle shaped crystals observed? (visual observation by light microscopy),[5]; [17],Yes
same,Crystal size (visual observation by light microscopy),[5]; [18],> 10 μm
same,Needle shaped crystals observed? (visual observation by light microscopy),[5]; [18],Yes
same,Crystal size (visual observation by light microscopy),[5]; [19],< 5 μm
same,Needle shaped crystals observed? (visual observation by light microscopy),[5]; [19],No
same,Crystal size (visual observation by light microscopy),[5]; [20],> 5 μm
same,Needle shaped crystals observed? (visual observation by light microscopy),[5]; [20],Yes
same,Crystal size (visual observation by light microscopy),[5]; [21],> 5 μm
same,Needle shaped crystals observed? (visual observation by light microscopy),[5]; [21],Yes
same,Crystal size (visual observation by light microscopy),[5]; [22],< 5 μm
same,Needle shaped crystals observed? (visual observation by light microscopy),[5]; [22],No
same,Crystal size (visual observation by light microscopy),[5]; [23],> 5 μm
same,Needle shaped crystals observed? (visual observation by light microscopy),[5]; [23],Yes
same,Crystal size (visual observation by light microscopy),[5]; [24],> 5 μm
same,Needle shaped crystals observed? (visual observation by light microscopy),[5]; [24],Yes
same,Crystal size (visual observation by light microscopy),[5]; [25],< 5 μm
same,Needle shaped crystals observed? (visual observation by light microscopy),[5]; [25],No
same,Crystal size (visual observation by light microscopy),[5]; [26],< 5 μm
same,Needle shaped crystals observed? (visual observation by light microscopy),[5]; [26],Yes
same,Crystal size (visual observation by light microscopy),[5]; [27],> 5 μm
same,Needle shaped crystals observed? (visual observation by light microscopy),[5]; [27],Yes
same,Crystal size (visual observation by light microscopy),[5]; [28],< 5 μm
same,Needle shaped crystals observed? (visual observation by light microscopy),[5]; [28],Yes
same,Crystal size (visual observation by light microscopy),[5]; [29],< 5 μm
same,Needle shaped crystals observed? (visual observation by light microscopy),[5]; [29],Yes
same,Crystal size (visual observation by light microscopy),[5]; [30],> 5 μm
same,Needle shaped crystals observed? (visual observation by light microscopy),[5]; [30],Yes
same,Crystal size (visual observation by light microscopy),[5]; [31],> 5 μm
same,Needle shaped crystals observed? (visual observation by light microscopy),[5]; [31],Yes
same,Crystal size (visual observation by light microscopy),[5]; [32],< 5 μm
same,Needle shaped crystals observed? (visual observation by light microscopy),[5]; [32],No
same,Crystal size (visual observation by light microscopy),[5]; [33],> 10 μm
same,Needle shaped crystals observed? (visual observation by light microscopy),[5]; [33],Yes
same,Crystal size (visual observation by light microscopy),[5]; [34],> 5 μm
same,Needle shaped crystals observed? (visual observation by light microscopy),[5]; [34],Yes
same,Crystal size (visual observation by light microscopy),[5]; [35],> 5 μm
same,Needle shaped crystals observed? (visual observation by light microscopy),[5]; [35],Yes
same,Crystal size (visual observation by light microscopy),[5]; [36],> 5 μm
same,Needle shaped crystals observed? (visual observation by light microscopy),[5]; [36],Yes
same,Crystal size (visual observation by light microscopy),[5]; [37],< 5 μm
same,Needle shaped crystals observed? (visual observation by light microscopy),[5]; [37],Yes
same,Crystal size (visual observation by light microscopy),[5]; [38],> 5 μm
same,Needle shaped crystals observed? (visual observation by light microscopy),[5]; [38],Yes
same,crystal growth of paclitaxel nanoparticles,[5]; in any of the hydrophobic carriers,did not grow
same,crystal growth of paclitaxel nanoparticles,"[5]; in aqueous solutions of benzalkonium chloride, CARBOPOL ULTREZ 10, or poloxamer 407",did not grow
same,effect of the presence of the paclitaxel nanoparticles in the formulations on dermal irritation,Göttingen minipigs,negligible effect
"CC(=O)O[C@H]1C(=O)[C@@]2(C)[C@H]([C@H](OC(=O)c3ccccc3)[C@]3(O)C[C@H](OC(=O)[C@H](O)[C@@H](NC(=O)c4ccccc4)c4ccccc4)C(C)=C1C3(C)C)[C@]1(OC(C)=O)CO[C@@H]1C[C@@H]2O [Paclitaxel, paclitaxel]",Paclitaxel Solubility at RT,"[6]; in Benzyl Alcohol, NF",17.02% w/w
same,Paclitaxel Solubility at RT,"[6]; in Diethylene Glycol Monoethyl Ether, NF (TRANSCUTOL P)",33.10% w/w
same,Paclitaxel Solubility at RT,[6]; in Diisopropyl Adipate (CERAPHYL 230),3.51% w/w
same,Paclitaxel Solubility at RT,[6]; in Dimethyl Isosorbide,38.22% w/w
same,Paclitaxel Solubility at RT,[6]; in Hexylene Glycol,4.07% w/w
same,Paclitaxel Solubility at RT,"[6]; in Isopropyl Myristate, NF",0.048% w/w
same,Paclitaxel Solubility at RT,"[6]; in Medium Chain Triglycerides, NF",0.32% w/w
same,Paclitaxel Solubility at RT,"[6]; in Mineral Oil, USP (heavy)",0.3 ppm
same,Paclitaxel Solubility at RT,"[6]; in Polyethylene Glycol 400, NF",22.30% w/w
same,Paclitaxel Solubility at RT,[6]; in Propylene Carbonate,4.74% w/w
same,Paclitaxel Solubility at RT,"[6]; in Propylene Glycol, USP",0.88% w/w
same,Paclitaxel Solubility at RT,"[6]; in Purified Water, USP",<0.05 ppm
same,Paclitaxel Solubility at RT,"[6]; in Purified Water, USP, listed as paclitaxel",less than 0.05 ppm
same,Paclitaxel Solubility at RT,"[6]; in Super Refined Oleic Acid, NF",0.041% w/w
same,Paclitaxel Solubility at RT,"[6]; in Super Refined Oleyl Alcohol, NF",0.38% w/w
